Experimental data: patent US20240336657A1, “G-ALPHA-S PEPTIDE INHIBITORS AND USES THEREOF” (The Regents of the University of California, priority 2021, published 2024)
Positions of bridges follow the written chain, without caps; N, C: chain ends. Non-standard residues stand in square brackets, D forms with d. Residues, ends and D or L forms follow the SMILES beside them.

Tests used:
[1] = test system: biotinylated Gαs WT and His-tagged Gβγ(C68S); test: FRET based Gα/Gβγ interaction assay; assay type: binding, human; conditions: Gαs/Gβγ versus Gαi/Gβγ
Procedure: When we compared our GD20-bound Gαs structure with another GDP-bound Gαs structure in complex with Gβγ (FIG. 20D) (Liu et al., 2019), we noticed that GD20 induces a significant conformational shift of the Gβγ binding surface, and GD20 occupies the Gβγ binding surface in a competitive manner (FIGS. 20E-20F). […] Finally, 2× stocks of cyclic peptides were added with the protein mixtures. After incubation at room temperature for 2 hour at room temperature. The plate was read on a TECAN Spark 20 M plate reader using the TR-FRET mode with the following parameters: Lag time: […], Integration time: […], Read A: Ex 320(25) nm (filter), Em 610(20) nm (filter), Gain 130, Read B: Ex 320(25) nm (filter), Em 665(8) nm (filter), Gain 165. FRET Signal was calculated as the ratio of [Read B]/[Read A].

Gαi1/Gβγ = target: T1, Gαi1/Gβγ (Homo sapiens, UniProt P63096); test: BRET2 based Gα Gβγ interaction assay in HEK293 cells (M2R, acetylcholine); assay type: cell-based; conditions: pretreated 25 μM, 16 hours, 100 nM acetylcholine
T1 construct: expressed in transfected cells; host or cells: HEK293 cells
Description: We next tested GD20-F10L in HEK 293 cells overexpressing both β2AR and Gαs/Gβγ. Rluc8 was inserted within a flexible loop region between the αB-αC helices of Gαs (FIG. 23J) and GFP2 was inserted at the N-terminus of Gγ2 to capture Gαβγ heterotrimer interaction. A decrease in the bioluminescence resonance energy transfer (BRET2) signal between labeled G protein subunits can detect Gαβγ dissociation (FIG. 21C) in live cells (Olsen et al., 2020). We examined Gαβγ trimer dissociation elicited by the GPCR agonist at various concentrations of cyclic peptides by monitoring the net BRET2 signal. In cells that were transiently transfected with a Gαs-coupled β2-adrenergic receptor (β2AR), GαsShort_Rluc8, […], and Gγ-GFP2, ISO application stimulated a basal net BRET response. […] This effect was GD20-F10L dose dependent (FIGS. 21D-21E). […] To assess the specificity of GD20-F10L at the G protein level, we tested it against the Gαi/Gβγ interaction. […]
8 hours after plating in 96-well assay plates, media was replaced with 100 μL of cyclic peptide dilutions in DMEM with 1% dialyzed FBS. […] Plates were then read in a TECAN Spark 20 M plate reader with 395 nm (RLuc8-coelenterazine 400a) and 510 nm (GFP2) emission filters, at integration times of 1 s per well. Plates were read serially six times, and measurements from the fourth read were used in all analyses. […]

[2] = Chemical stability assay in DMEM with 10% FBS; assay type: in vitro ADME; conditions: bovine, 37° C., values represent 95% confidence intervals
Procedure: These assays were conducted by Pharmaron Beijing CO., Ltd. Cyclic peptides working solutions were prepared at 10 μM in DMEM with 10% FBS (Avantor, Cat #76294-180) or human plasma (Pooled, Male & Female, BioIVT, Cat #HMN666664). The assays were performed in duplicate. Vials were incubated at 37° C. at 60 rpm in a water bath and taken at designated time points including 0, 480, 1080 and 1440 min. For each time point, the initiation of the reaction was staggered so all the time points were terminated with cold acetonitrile containing internal standards (IS, 100 nM alprazolam, 200 nM labetalol, 200 nM Imipramine and 2 μM ketoplofen) at the same time. Samples were vortexed then centrifuged at 4° C. to remove proteins. The supernatants from centrifugation were diluted by ultra-pure H2O and used for LC-MS/MS analysis. All calculations were carried out using GraphPad Prism. Remaining percentages of parent compounds at each time point were estimated by determining the peak area ratios from extractedion chromatograms.

T1 sequence (P63096 whole entry): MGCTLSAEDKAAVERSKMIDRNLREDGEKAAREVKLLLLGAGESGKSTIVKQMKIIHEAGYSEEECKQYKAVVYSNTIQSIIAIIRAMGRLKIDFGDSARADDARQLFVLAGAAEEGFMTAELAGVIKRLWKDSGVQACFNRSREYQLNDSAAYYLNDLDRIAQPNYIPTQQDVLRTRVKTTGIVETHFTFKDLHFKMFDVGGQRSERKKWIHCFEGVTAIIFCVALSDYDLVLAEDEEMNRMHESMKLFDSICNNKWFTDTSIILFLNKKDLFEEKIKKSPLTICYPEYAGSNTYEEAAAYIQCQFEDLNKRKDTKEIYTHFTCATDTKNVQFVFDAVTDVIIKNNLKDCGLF

Compound: CC[C@H](C)[C@@H]1NC(=O)[C@H](CC(C)C)NC(=O)[C@@H](Cc2ccc(O)cc2)NC(=O)CSC[C@@H](C(=O)NCC(N)=O)NC(=O)[C@@H]2CCCN2C(=O)[C@H](CC(C)C)NC(=O)[C@H](CC(N)=O)NC(=O)[C@H](CC(C)C)NC(=O)[C@H](C)NC(=O)[C@H](Cc2c[nH]c3ccccc23)NC(=O)[C@H](CCC(N)=O)NC(=O)[C@H](CCCNC(=N)N)NC(=O)[C@H](Cc2ccccc2)NC(=O)[C@H]([C@@H](C)O)NC1=O [GD20-F10L] ({CH2CO}-[dY]LITFRQWALNLPCG-NH2; thioether N-14)
- selectivity for Gαs than Gαi in the FRET assay [1]: 100 fold
- net BRET2 signal change between Gαi and Gβγ after acetylcholine (Gαi1/Gβγ): did not induce a net BRET2 signal change
- half-life at 10 μM [2]: 37.4 to 50.3 h
